According to patent publication US8318815B2, “Method for treatment of tumors using nordihydroguaiaretic acid derivatives” (priority 1999, dated 2012):
Values joined by “and” are separate entries in the source; they are usually repeats but may differ in a detail not shown here. Equal values may be shown once. Marks after values point to notes of the source that are not given here.

Assays:
C3 cells [1] = test system: C3 cells
Procedure: (§1) FIG. 9. […] (a-d) C3, CEM-T4, C33a, and TC-1 cells were treated with different concentrations of M4N. The number of cells present at the initiation of the experiment is indicated as Day 0. After three days the number of viable cells were counted and plotted versus the M4N concentration. […] After 3 days, one-half of the M4N treated cells were given fresh media containing only 1% DMSO (M-D), while the rest of the cells were given fresh media with the same conditions (second media change). The cells were counted daily and plotted versus the time of treatment.
HPV-16 transformed immortal mouse epithelial cells (C3 cells) were plated at a density of 10^5 cells per vial.
The effect on C3 growth following removal of M4N from the medium was also examined. C3 cells were plated at a density of 10^4 cells per vial. […] The other ⅔ of the cell vials were washed and replaced with the same media administered before.
This hypothesis was tested by examining the antiproliferative effect of M4N on a number of different cell lines.

[2] = test system: cellular gene expression in C3 cells; assay: 9600 gene array hybridization of C3 cells; format: cell-based, mouse; details: 72 hrs
Excerpt: Gene expression with 9600 gene arrays was studied (FIG. 5). Five micrograms each of poly A^+RNA from 72 hrs. M4N ([…]) treated (C3 M4N) and non-treated (C3 DMSO) was used in a pair of human 9600 gene array hybridization study according to the procedure described in Genomics 51, 313-324 1998. The hybridization image was captured by a color video camera with a Nikon 55 mm AF micro Niko lens and digitized by a Macintosh LC630 computer. Such detection via enzyme substrate reaction of color-forming enzymes in either single or dual-color mode is reproducible and extremely sensitive (can detect <5 copies of transcript per cell with RNAs from 10^7 cells).
[…]. Image files in TIFF format and data files in MS excel format are kept on ZIP diskette. Gene names and clone ID numbers are available for obtaining Image clones for future northern blot confirmation.

C3 tumor [3] = assay: C3 tumor growth in mice, local (intratumoral) injection; format: in vivo
Procedure: Thirty six C57b1-16 NCR mice were injected with 5×10^5 C3 cells between the shoulders on the backs of the mice. Twenty four of the mice developed tumors within 20 days. […]
36 C57b1-16NCR mice were injected with 5×10^5 C3 cells/mouse. Injections were 100 μL made subcutaneously between the shoulders on the backs of the mice. Cells were suspended in low-salt HBSS and suspension uniformity was maintained by gentle vortexing.
24 mice developed tumors. Their lesion sizes were measured by dial caliper. These mice were shaved, weight and treatment begun (Day 1). Four were sequestered as controls. Control mice received 50 μl DMSO injected intratumorally daily. […]. Injections were made to several regions of tumor. Mice anesthetized with ether or metaphane prior to injection.
The treatment regimen and results were as follows: • Day 10: Mice weighed again. […]. The skin at the lesion site of #17 cracked with the “dried-out tumor” showing. It was dissected, and lesion excised and weighed. […]. Remaining control mice (#1, 3, 4) were examined non-invasively and were carrying tumors. • Day 21: Tumor sizes from control mice were measured by dial caliper. […]. […]

C3 tumor [4] = assay: Histopathology of excised C3 tumors; format: in vivo, mice; details: hematoxylin and eosin sections
Procedure: Drug treated (M4N) and DMSO vehicle-treated or untreated tumors (CON) from two groups of mice were prepared for histopathology examination. The excised tumors were immediately fixed and then stored in 4% formaldehyde in phosphate buffered saline. The fixed tissue was then dehydrated through a series of graded alcohols and xylene and embedded in paraffin. The paraffin tissue blocks were thin sectioned and stained for microscopy with hematoxylin and eosin. […] They show the high nuclear/cytoplasmic ratio, pleomorphic nuclear changes, high mitotic figures, spindle like sarcoma shape, and infiltration into the surrounding tissue characteristic of cancer cells.

HSV-1 = HSV-1 skin infection in guinea pig, topical treatment; format: in vivo
Procedure: The drug M4N was also tested in inhibition of HSV-1 replication in skin infections in guinea pigs. Guinea pig skin was pinched with needles and HSV-1 […] was applied topically to infect each pricked area. M4N was then applied to the pricked infected area following infection daily for 6 days.
Six areas of bared back skin of a guinea pig were punched sterilely with a 5=DIN needle. Two areas were infected with HSV-1 (HSV-C, culture supernatant, or isolated HSV in saline, HSV-SC). The other four areas were infected with HSV-SC.

[5] = Initial animal toxicity studies of M4N in mice; format: in vivo
TC-1 cell line = assay: TC-1 cell growth; details: TC-1 cells
Procedure: as §1

C33a cell line = assay: C33a cell growth; format: cell-based, human; details: three days
Procedure: as §1

CEM-T4 line = assay: CEM-T4 cell growth; format: cell-based, human; details: three days
Procedure: as §1

CDC2 mRNA = assay: Northern blot of CDC2 mRNA in C3 cells; details: 40 μM
E6/E7 mRNA = assay: RT-PCR of HPV-16 E6/E7 transcripts in C3 cells; details: 40 μM
Procedure: The RTPCR samples were removed after increasing cycles of amplification and resolved on an agarose gel.
The RT-PCR product was analyzed on a 2% agarose gel.

C3 cells [6] = assay: Cell cycle DNA content by propidium iodide flow cytometry, C3; details: C3, 72 hours
Excerpt: (§2) The cells were trypsinized, fixed with ethanol, stained with propidium iodide, and were subsequently analyzed by flow cytommetry. […] The indicated stages of the cell cycle are labeled and correspond to the relative cellular DNA compliment as determined by staining intensity.

[7] = test system: SP1-regulated HPV E6/E7 promoter; assay: HPV16 LCR (P97 promoter) luciferase reporter assay in C33A cells; details: thirty hours after drug treatment
CEM-T4 cells = assay: Cell cycle DNA content by propidium iodide flow cytometry, CEM-T4; details: CEMT4, 72 hours
Excerpt: as §2

[8] = mice carrying multiple tumors, per mouse
[9] = mice with single tumors, per mouse

COc1ccc(C[C@@H](C)[C@@H](C)Cc2ccc(OC)c(OC)c2)cc1OC [M4N, tetra-O-methylnordihydroguaiaretic acid]
rate of cell growth following the change to drug-free media (C3 cells [1]; 40 μM for 73 hours, then media with 1% DMSO only): not notably increased
fraction of viable cells compared to the total cell count (C3 cells [1]; 40 μM in 1% DMSO): remained constant
growth and division of C3 cells (C3 cells [1]; 40 μM in 1% DMSO, versus DMSO only control): markedly reduced
"threshold" concentration above which the percentage of viable cells decreases precipitously (C3 cells [1]; C3 cells): 60 µM
cell death after prolonged exposure (C3 cells [1]; C3 cells, eight days, 40 μM): no increase in cell death
viable fraction of arrested cells (C3 cells [1]; the four cell lines treated (C3, CEM-T4, C33a, TC-1), up to the threshold concentration): > 95%
Cyclin-dependent kinase 7 expression, Treated ([2]; 40 μM, Untreated = 100%): (5%)
Cysteine protease expression, Treated ([2]; 40 μM, Untreated = 100%): (7%)
Human TNF-related Apoptosis AP02 expression, Treated ([2]; 40 μM, Untreated = 100%): (3%)
Human cytokine receptor expression, Treated ([2]; 40 μM, Untreated = 100%): (2%)
Proliferating cell nuclear antigen, PCNA expression, Treated ([2]; 40 μM, Untreated = 100%): (1%)
Increase: Apoptosis (APO-1) antigen ([2]; 40 μm, vs C3 DMSO): (100X)
Increase: Cyclin-dependent kinase inhibitor ([2]; 40 μm, vs C3 DMSO): (100X)
Increase: Death Domain Three DR3 ([2]; 40 μm, vs C3 DMSO): (100X)
Increase: Human Map Kinase ([2]; 40 μm, vs C3 DMSO): (40X)
Increase: Ras-related protein RAP-1 ([2]; 40 μm, vs C3 DMSO): (60X)
body weight changes during the entire experimental period (C3 tumor [3]; Tables 1 and 2): insignificant
tumor growth in mice (C3 tumor [3]; daily injection of 50 μl to 100 μl for several days): completely stop tumor growth
average weight of treated lesions (C3 tumor [3]; mice carrying multiple tumors, drug injected into one of the tumors): 0.15 g
Body wt. Day 1 (C3 tumor [3]; [8]): 17.8 g and 20.2 g and 17.5 g
Body wt. Day 24 (C3 tumor [3]; [8]): 20.0 g and 17.9 g and 22.1 g
Wt. Of Excised Lesion, Treated (C3 tumor [3]; mice carrying multiple tumors, drug injected directly to the tumor regions, per mouse): 0.11 g and 0.25 g and 0.1 g
average weight of excised lesions (C3 tumor [3]; mice carrying single tumors, control group 1.48 g): 0.142 g
Body wt. Day 1 (C3 tumor [3]; [9]): 19 g and 18.2 g and 19.5 g and 17 g and 18.9 g and 17.2 g and 17.3 g
Body wt. Day 16 (C3 tumor [3]; [9]): 19.2 g and 17.6 g (2×) and 20.0 g
Body wt. Day 24 (C3 tumor [3]; [9]): 20.4 g and 20.2 g
Wt. Of Excised Lesion Day 16 (C3 tumor [3]; [9]): 0.2 g and 0.4 g and 0.1 g and 0 g
Wt. Of Excised Lesion Day 24 (C3 tumor [3]; [9]): 0.1 g and 0 g
Wt. Of Excised Lesion, taken on Day 15 (C3 tumor [3]; mouse 17, single tumor): 0.2** g
histopathology of treated tumors (C3 tumor [4]): significant necrosis
blisters in HSV-1 infected skin areas at day 6 (HSV-1; 30 μl of 60 mg/ml in DMSO, five times per day for six days): no blisters
shedding of the virus (HSV-1; 4 days after the drug treatment): no shedding of the virus
non-toxic to mice at concentrations as high as ([5]; given either subcutaneously or by IV): ≤ 375 mg/kg
non-toxic to mice at concentrations as high as ([5]; given intraperitoneally): ≤ 300 mg/kg
"threshold" concentration above which the percentage of viable cells decreases precipitously (TC-1 cell line): 40 µM
growth of C33a cell line (C33a cell line): blocked
growth of CEM-T4 line (CEM-T4 line): blocked
amount of CDC2 mRNA (CDC2 mRNA; 24 hours): reduced
amount of CDC2 mRNA (CDC2 mRNA; 72 hours): nearly eliminated
levels of the E7 transcript (E6/E7 mRNA; 5 to 72 hours, rtPCR): clear reduction
amplified E7 (321 bp) and E6 (204 bp) RT-PCR products (E6/E7 mRNA; 71 hours, following 30 cycles of amplification): barely detectable
cells showing G2/M DNA content (C3 cells [6]): > 90%
Sp1 regulated transcription initiation at the HPV E6/E7 promoter (specific luciferase activity) [7]: dramatically reduces
cells showing G2/M DNA content (CEM-T4 cells): > 90%
